Numbers after ± are expanded uncertainties.
How the values were obtained:
[1] = wn = mass fraction of the nth substance listed; settings: 100 kPa, Liquid, Pycnometric method
[2] = Liquid, Ebulliometric method (Recirculating still)

O [water] + Cl.Nc1ccccc1
mass density ([1]; 298.15 K, w2 = 0): 997.7 ± 0.3 kg/m3 | mass density ([1]; 303.15 K, w2 = 0): 996 ± 1 kg/m3 | mass density ([1]; 313.15 K, w2 = 0): 992 ± 1 kg/m3 | mass density ([1]; 323.15 K, w2 = 0): 986.6 ± 0.3 kg/m3 | mass density ([1]; 333.15 K, w2 = 0): 983.1 ± 0.4 kg/m3 | mass density ([1]; 343.15 K, w2 = 0): 977.3 ± 0.4 kg/m3 | mass density ([1]; 353.15 K, w2 = 0): 971.8 ± 0.4 kg/m3 | mass density ([1]; 356.65 K, w2 = 0): 963.9 ± 0.7 kg/m3

Cl.Nc1ccccc1 [aniline hydrochloride] + O
mass density ([1]; 298.15 K, w1 = 0.01): 1000 ± 1 kg/m3 | mass density ([1]; 298.15 K, w1 = 0.05): 1009.2 ± 0.3 kg/m3 | mass density ([1]; 298.15 K, w1 = 0.1): 1018.9 ± 0.3 kg/m3 | mass density ([1]; 298.15 K, w1 = 0.15): 1028.7 ± 0.3 kg/m3 | mass density ([1]; 298.15 K, w1 = 0.2): 1038.5 ± 0.3 kg/m3 | mass density ([1]; 298.15 K, w1 = 0.3): 1057.8 ± 0.3 kg/m3 | mass density ([1]; 298.15 K, w1 = 0.35): 1068 ± 1 kg/m3 | mass density ([1]; 298.15 K, w1 = 0.4): 1078.3 ± 0.3 kg/m3 | mass density ([1]; 303.15 K, w1 = 0.01): 997.4 ± 0.3 kg/m3 | mass density ([1]; 303.15 K, w1 = 0.05): 1007.3 ± 0.3 kg/m3 | mass density ([1]; 303.15 K, w1 = 0.1): 1016.3 ± 0.3 kg/m3 | mass density ([1]; 303.15 K, w1 = 0.15): 1026.6 ± 0.3 kg/m3 | mass density ([1]; 303.15 K, w1 = 0.2): 1036.8 ± 0.3 kg/m3 | mass density ([1]; 303.15 K, w1 = 0.3): 1056 ± 1 kg/m3 | mass density ([1]; 303.15 K, w1 = 0.35): 1065.8 ± 0.3 kg/m3 | mass density ([1]; 303.15 K, w1 = 0.4): 1075.6 ± 0.3 kg/m3 | mass density ([1]; 313.15 K, w1 = 0.01): 994.3 ± 0.3 kg/m3 | mass density ([1]; 313.15 K, w1 = 0.05): 1002.3 ± 0.3 kg/m3 | mass density ([1]; 313.15 K, w1 = 0.1): 1012.3 ± 0.3 kg/m3 | mass density ([1]; 313.15 K, w1 = 0.15): 1021.7 ± 0.3 kg/m3 | mass density ([1]; 313.15 K, w1 = 0.2): 1031 ± 1 kg/m3 | mass density ([1]; 313.15 K, w1 = 0.3): 1049.6 ± 0.3 kg/m3 | mass density ([1]; 313.15 K, w1 = 0.35): 1059.7 ± 0.4 kg/m3 | mass density ([1]; 313.15 K, w1 = 0.4): 1069.7 ± 0.4 kg/m3 | mass density ([1]; 323.15 K, w1 = 0.01): 989.5 ± 0.3 kg/m3 | mass density ([1]; 323.15 K, w1 = 0.05): 995.9 ± 0.3 kg/m3 | mass density ([1]; 323.15 K, w1 = 0.1): 1007.3 ± 0.3 kg/m3 | mass density ([1]; 323.15 K, w1 = 0.15): 1016.5 ± 0.3 kg/m3 | mass density ([1]; 323.15 K, w1 = 0.2): 1025.8 ± 0.3 kg/m3 | mass density ([1]; 323.15 K, w1 = 0.3): 1045.3 ± 0.4 kg/m3 | mass density ([1]; 323.15 K, w1 = 0.35): 1055.1 ± 0.4 kg/m3 | mass density ([1]; 323.15 K, w1 = 0.4): 1065 ± 1 kg/m3 | mass density ([1]; 323.15 K, w1 = 0.6): 1107.5 ± 0.4 kg/m3 | mass density ([1]; 333.15 K, w1 = 0.01): 985.6 ± 0.4 kg/m3 | mass density ([1]; 333.15 K, w1 = 0.05): 991.2 ± 0.4 kg/m3 | mass density ([1]; 333.15 K, w1 = 0.1): 1003.8 ± 0.4 kg/m3 | mass density ([1]; 333.15 K, w1 = 0.15): 1012.8 ± 0.4 kg/m3 | mass density ([1]; 333.15 K, w1 = 0.2): 1021.8 ± 0.4 kg/m3 | mass density ([1]; 333.15 K, w1 = 0.3): 1040.6 ± 0.4 kg/m3 | mass density ([1]; 333.15 K, w1 = 0.35): 1050.1 ± 0.4 kg/m3 | mass density ([1]; 333.15 K, w1 = 0.4): 1059.6 ± 0.4 kg/m3 | mass density ([1]; 333.15 K, w1 = 0.6): 1103.3 ± 0.4 kg/m3 | mass density ([1]; 343.15 K, w1 = 0.01): 979.1 ± 0.4 kg/m3 | mass density ([1]; 343.15 K, w1 = 0.05): 985.1 ± 0.4 kg/m3 | mass density ([1]; 343.15 K, w1 = 0.1): 997.1 ± 0.4 kg/m3 | mass density ([1]; 343.15 K, w1 = 0.15): 1005.9 ± 0.4 kg/m3 | mass density ([1]; 343.15 K, w1 = 0.2): 1014.7 ± 0.4 kg/m3 | mass density ([1]; 343.15 K, w1 = 0.3): 1033.5 ± 0.4 kg/m3 | mass density ([1]; 343.15 K, w1 = 0.35): 1043 ± 1 kg/m3 | mass density ([1]; 343.15 K, w1 = 0.4): 1052.5 ± 0.4 kg/m3 | mass density ([1]; 343.15 K, w1 = 0.6): 1097.1 ± 0.5 kg/m3 | mass density ([1]; 353.15 K, w1 = 0.01): 975.1 ± 0.4 kg/m3 | mass density ([1]; 353.15 K, w1 = 0.05): 980.7 ± 0.4 kg/m3 | mass density ([1]; 353.15 K, w1 = 0.1): 990.2 ± 0.5 kg/m3 | mass density ([1]; 353.15 K, w1 = 0.15): 998.8 ± 0.5 kg/m3 | mass density ([1]; 353.15 K, w1 = 0.2): 1007.4 ± 0.5 kg/m3 | mass density ([1]; 353.15 K, w1 = 0.3): 1026.7 ± 0.5 kg/m3 | mass density ([1]; 353.15 K, w1 = 0.35): 1036.3 ± 0.5 kg/m3 | mass density ([1]; 353.15 K, w1 = 0.4): 1045.9 ± 0.5 kg/m3 | mass density ([1]; 353.15 K, w1 = 0.6): 1087 ± 1 kg/m3 | mass density ([1]; 356.65 K, w1 = 0.01): 965.4 ± 0.9 kg/m3 | mass density ([1]; 356.65 K, w1 = 0.05): 973.4 ± 0.8 kg/m3 | mass density ([1]; 356.65 K, w1 = 0.1): 978.7 ± 0.9 kg/m3 | mass density ([1]; 356.65 K, w1 = 0.15): 987.6 ± 1 kg/m3 | mass density ([1]; 356.65 K, w1 = 0.2): 996.6 ± 0.9 kg/m3 | mass density ([1]; 356.65 K, w1 = 0.3): 1016 ± 1 kg/m3 | mass density ([1]; 356.65 K, w1 = 0.35): 1026.1 ± 0.9 kg/m3 | mass density ([1]; 356.65 K, w1 = 0.4): 1036.3 ± 0.9 kg/m3 | mass density ([1]; 356.65 K, w1 = 0.6): 1078 ± 1 kg/m3

Cl.Nc1ccccc1 [aniline hydrochloride]
vapor or sublimation pressure ([2]; 475.15 K): 23.25 ± 0.18 kPa | vapor or sublimation pressure ([2]; 480.15 K): 27.25 ± 0.2 kPa | vapor or sublimation pressure ([2]; 484.15 K): 31.25 ± 0.2 kPa | vapor or sublimation pressure ([2]; 488.15 K): 34.25 ± 0.25 kPa | vapor or sublimation pressure ([2]; 493.15 K): 41.25 ± 0.61 kPa | vapor or sublimation pressure ([2]; 494.15 K): 44.25 ± 0.42 kPa | vapor or sublimation pressure ([2]; 495.15 K): 45.25 ± 0.25 kPa | vapor or sublimation pressure ([2]; 496.15 K): 46.25 ± 0.31 kPa | vapor or sublimation pressure ([2]; 498.15 K): 49.25 ± 0.37 kPa | vapor or sublimation pressure ([2]; 499.15 K): 51.25 ± 0.39 kPa | vapor or sublimation pressure ([2]; 500.15 K): 52.75 ± 0.39 kPa | vapor or sublimation pressure ([2]; 501.15 K): 54.75 ± 0.39 kPa | vapor or sublimation pressure ([2]; 502.15 K): 56.25 ± 0.46 kPa | vapor or sublimation pressure ([2]; 503.15 K): 59 ± 0.43 kPa | vapor or sublimation pressure ([2]; 505.15 K): 62.25 ± 0.46 kPa | vapor or sublimation pressure ([2]; 509.15 K): 71.25 ± 0.53 kPa | vapor or sublimation pressure ([2]; 512.15 K): 79.25 ± 0.6 kPa | vapor or sublimation pressure ([2]; 513.65 K): 83.75 ± 0.66 kPa | vapor or sublimation pressure ([2]; 516.15 K): 91.25 ± 0.73 kPa | vapor or sublimation pressure ([2]; 517.65 K): 97.25 ± 0.75 kPa | vapor or sublimation pressure ([2]; 519.15 K): 101.5 ± 0.81 kPa | vapor or sublimation pressure ([2]; 519.65 K): 105.25 ± 1.1 kPa | vapor or sublimation pressure ([2]; 521.15 K): 112.25 ± 1.1 kPa | vapor or sublimation pressure ([2]; 522.15 K): 118.25 ± 1.3 kPa | vapor or sublimation pressure ([2]; 524.15 K): 131.25 ± 1.3 kPa | vapor or sublimation pressure ([2]; 525.15 K): 136.25 ± 1.1 kPa | vapor or sublimation pressure ([2]; 526.15 K): 141.25 ± 1.3 kPa | vapor or sublimation pressure ([2]; 527.15 K): 148.25 ± 1.5 kPa

— the NIST ThermoML archive (doi:10.1016/j.fluid.2015.12.053)
